Target: human F508del-CFTR (Homo sapiens, UniProt P13569, DEL508-508)
Assay: F508del-CFTR cell surface expression (corrector activity), DiscoveRx ß-galactosidase complementation chemiluminescence assay in recombinant U2OS cell line;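 note: U2OS cells co-expressing ProLink-tagged F508del-CFTR and a membrane-anchored enzyme acceptor, where more surface CFTR restores β-galactosidase activity measured by chemiluminescence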
Conditions: for EC50: EC50, F508del-CFTR cell surface expression; for Emax: U2OS
[1] = U2OS cell line, 16h compound incubation, geomean values
[2] = in relation to the Emax of the corrector lumacaftor (=100%), U2OS cell line, 16h compound incubation, arithmetic mean values
[3] = U2OS cells, 16h compound incubation, geomean of several measurements
[4] = in relation to the Emax of the corrector lumacaftor (=100%), U2OS cells, 16h compound incubation, arithmetic mean
[5] = U2OS cells, 16h compound incubation, geomean values
[6] = in relation to Emax of corrector lumacaftor (=100%), arithmetic mean values

Chain of human F508del-CFTR (P13569 with tags, fused parts or gaps DEL508-508): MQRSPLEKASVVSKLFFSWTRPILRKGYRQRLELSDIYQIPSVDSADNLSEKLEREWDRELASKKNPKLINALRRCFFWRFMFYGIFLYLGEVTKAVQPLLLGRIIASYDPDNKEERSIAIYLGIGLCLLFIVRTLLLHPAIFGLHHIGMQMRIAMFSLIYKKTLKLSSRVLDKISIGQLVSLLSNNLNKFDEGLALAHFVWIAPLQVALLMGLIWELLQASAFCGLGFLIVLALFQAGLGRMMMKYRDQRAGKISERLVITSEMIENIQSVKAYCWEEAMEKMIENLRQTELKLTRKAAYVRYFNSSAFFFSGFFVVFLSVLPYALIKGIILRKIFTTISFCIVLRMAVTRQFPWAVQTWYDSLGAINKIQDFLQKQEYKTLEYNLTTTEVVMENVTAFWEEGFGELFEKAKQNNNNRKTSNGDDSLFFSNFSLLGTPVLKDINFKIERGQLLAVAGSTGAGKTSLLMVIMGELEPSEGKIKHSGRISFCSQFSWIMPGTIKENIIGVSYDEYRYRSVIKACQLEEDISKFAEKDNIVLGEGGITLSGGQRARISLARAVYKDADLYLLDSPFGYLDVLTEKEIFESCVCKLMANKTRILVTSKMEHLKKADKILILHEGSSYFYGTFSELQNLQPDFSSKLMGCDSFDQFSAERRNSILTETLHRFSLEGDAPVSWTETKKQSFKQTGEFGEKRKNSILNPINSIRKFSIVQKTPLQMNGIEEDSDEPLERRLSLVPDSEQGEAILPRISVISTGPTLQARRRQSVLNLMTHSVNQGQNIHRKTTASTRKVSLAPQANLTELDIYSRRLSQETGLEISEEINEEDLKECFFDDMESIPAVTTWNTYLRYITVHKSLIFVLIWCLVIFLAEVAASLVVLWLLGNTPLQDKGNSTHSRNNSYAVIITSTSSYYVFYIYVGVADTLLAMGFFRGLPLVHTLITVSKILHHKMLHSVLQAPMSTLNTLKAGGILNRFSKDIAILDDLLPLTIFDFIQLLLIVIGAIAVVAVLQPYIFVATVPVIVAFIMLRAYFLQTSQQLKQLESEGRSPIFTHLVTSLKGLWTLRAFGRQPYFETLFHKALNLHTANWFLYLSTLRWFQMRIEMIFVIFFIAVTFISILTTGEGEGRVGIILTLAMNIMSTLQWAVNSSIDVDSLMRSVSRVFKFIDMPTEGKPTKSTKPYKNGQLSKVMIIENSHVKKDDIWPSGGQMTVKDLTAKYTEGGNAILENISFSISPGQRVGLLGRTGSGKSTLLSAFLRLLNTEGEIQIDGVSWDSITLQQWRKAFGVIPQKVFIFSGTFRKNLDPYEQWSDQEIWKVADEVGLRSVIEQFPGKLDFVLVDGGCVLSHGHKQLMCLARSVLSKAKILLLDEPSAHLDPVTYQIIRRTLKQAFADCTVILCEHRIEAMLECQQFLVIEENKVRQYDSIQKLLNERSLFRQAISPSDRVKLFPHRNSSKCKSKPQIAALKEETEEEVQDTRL

Row | Compound | EC50 [1] [µM] | Emax [2] [%] | other results
1 | COc1cccc2c1C(=O)N[C@H](C(=O)NCCc1ccc3c(c1)OCO3)CC(=O)N(C)[C@@H](CC(C)C)C(=O)N(CCC1CCCCC1)CC(=O)N[C@H](Cc1ccccc1)CO2 [Example 198, (3R,9S,13S)-N-(2-(benzo[d][1,3]dioxol-5-yl)ethyl)-3-benzyl-7-(2-cyclohexylethyl)-9-isobutyl-16-methoxy-10-methyl-5,8,11,15-tetraoxo-2,3,4,5,6,7,8,9,10,11,12,13,14,15-tetradecahydrobenzo[p][1]oxa[4,7,10,14]tetraazacycloheptadecine-13-carboxamide] | 0.195 | 243 | 
2 | CCOc1cccc(CCNC(=O)[C@@H]2CC(=O)N(C)[C@@H](CC(C)C)C(=O)N(C)CC(=O)N[C@H](Cc3ccccc3)COc3cc4c(cc3C(=O)N2)OCO4)c1 [Example 225, (7R,13S,17S)-7-benzyl-N-(3-ethoxyphenethyl)-13-isobutyl-11,14-dimethyl-9,12,15,19-tetraoxo-6,7,8,9,10,11,12,13,14,15,16,17,18,19-tetradecahydro-[1,3]dioxolo[4′,5′:4,5]benzo[1,2-p][1]oxa[4,7,10,14]tetraazacycloheptadecine-17-carboxamide] | 0.191 | 110 | 
3 | CC(C)C[C@H]1C(=O)N(C)C2(CC2)C(=O)N[C@H](Cc2ccccc2)COc2cnc3ccc(F)cc3c2C(=O)N[C@H](C(=O)NCCc2nc(C3CC3)no2)CC(=O)N1C [Example 140, (3′S,7′S,13′R)-13′-benzyl-N-(2-(3-cyclopropyl-1,2,4-oxadiazol-5-yl)ethyl)-20′-fluoro-7′-isobutyl-6′,9′-dimethyl-1′,5′,8′,11′-tetraoxo-2′,3′,4′,5′,6′,7′,8′,9′,11′,12′,13′,14′-dodecahydro-1′H-spiro[cyclopropane-1,10′-[1]oxa[4,7,10,14]tetraazacycloheptadecino[17,16-c]quinoline]-3′-carboxamide] | 0.142 | 318 | 
4 | COc1cccc(CCNC(=O)[C@@H]2CC(=O)N(C)[C@@H](CC(C)C)C(=O)N3CCCC[C@@H]3C(=O)N[C@H](Cc3ccccc3)COc3ccc4oc(C)nc4c3C(=O)N2)c1 [Example 351, (8S,12S,18aR,21R)-21-benzyl-12-isobutyl-N-(3-methoxyphenethyl)-4,11-dimethyl-6,10,13,19-tetraoxo-6,7,8,9,10,11,12,13,16,17,18,18a,19,20,21,22-hexadecahydro-15H-oxazolo[5′,4′:5,6]benzo[1,2-p]pyrido[2,1-f][1]oxa[4,7,10,14]tetraazacycloheptadecine-8-carboxamide] | 0.756 | 127 | 
5 | CC(C)C[C@H]1C(=O)N2CCCC[C@@H]2C(=O)N[C@H](Cc2ccccc2)COc2cnc3ccccc3c2C(=O)N[C@H](C(=O)NCCc2ccc(F)cc2F)CC(=O)N1C [Example 94, (9S,13S,19aR,22R)-22-benzyl-N-(2,4-difluorophenethyl)-13-isobutyl-12-methyl-7,11,14,20-tetraoxo-7,8,9,10,11,12,13,14,17,18,19,19a,20,21,22,23-hexadecahydro-16H-pyrido[2′,1′:6,7][1]oxa[4,7,10,14]tetraazacycloheptadecino[17,16-c]quinoline-9-carboxamide] | 0.257 | 201 | 
6 | COc1noc(CCNC(=O)[C@@H]2CC(=O)N(C)[C@@H](CC(C)C)C(=O)N(C)[C@@H](CC(F)(F)F)C(=O)N[C@H](Cc3ccccc3)COc3ccc4cnc(C)cc4c3C(=O)N2)n1 [Example 939, (3S,7S,10S,13R)-13-benzyl-7-isobutyl-N-(2-(3-methoxy-1,2,4-oxadiazol-5-yl)ethyl)-6,9,20-trimethyl-1,5,8,11-tetraoxo-10-(2,2,2-trifluoroethyl)-1,2,3,4,5,6,7,8,9,10,11,12,13,14-tetradecahydro-[1]oxa[4,7,10,14]tetraazacycloheptadecino[16,17-f]isoquinoline-3-carboxamide] |  |  | EC50 [3]: 0.737 µM; Emax [4]: 288%
7 | COc1cc(OCC[C@@H]2C(=O)N[C@H](Cc3ccccc3)COc3cc(C)nc(OC)c3C(=O)N[C@H](C(=O)NCCc3cc(OC)no3)CC(=O)N(C)[C@@H](CC(C)C)C(=O)N2C)ccn1 [Example 978, (3R,6R,9S,13S)-3-benzyl-9-isobutyl-16-methoxy-N-(2-(3-methoxyisoxazol-5-yl)ethyl)-6-(2-((2-methoxypyridin-4-yl)oxy)ethyl)-7,10,18-trimethyl-5,8,11,15-tetraoxo-2,3,4,5,6,7,8,9,10,11,12,13,14,15-tetradecahydropyrido[3,4-p][1]oxa[4,7,10,14]tetraazacycloheptadecine-13-carboxamide] |  |  | EC50 [3]: 0.129 µM; Emax [4]: 457%
8 | COc1cccc(CCNC(=O)[C@@H]2CC(=O)N(C)[C@@H](CC(C)C)C(=O)N(CCC3CCCCC3)CC(=O)N[C@H](Cc3ccccc3)COc3cccc(C)c3C(=O)N2)c1 [Example 247, (3R,9S,13S)-3-benzyl-7-(2-cyclohexylethyl)-9-isobutyl-N-(3-methoxyphenethyl)-10,16-dimethyl-5,8,11,15-tetraoxo-2,3,4,5,6,7,8,9,10,11,12,13,14,15-tetradecahydrobenzo[p][1]oxa[4,7,10,14]tetraazacycloheptadecine-13-carboxamide] | 0.146 | 111 | 
9 | CC(C)C[C@H]1C(=O)N(C)[C@H](Cc2nc(C(F)(F)F)no2)C(=O)N[C@H](Cc2ccccc2)COc2ccc3ncc(F)cc3c2C(=O)N[C@H](C(=O)NC[C@@H](O)c2nc(C3CC3)no2)CC(=O)N1C [Example 966, (3S,7S,10R,13R)-13-benzyl-N-((R)-2-(3-cyclopropyl-1,2,4-oxadiazol-5-yl)-2-hydroxyethyl)-20-fluoro-7-isobutyl-6,9-dimethyl-1,5,8,11-tetraoxo-10-((3-(trifluoromethyl)-1,2,4-oxadiazol-5-yl)methyl)-1,2,3,4,5,6,7,8,9,10,11,12,13,14-tetradecahydro-[1]oxa[4,7,10,14]tetraazacycloheptadecino[16,17-f]quinoline-3-carboxamide] |  |  | EC50 [3]: 0.082 µM; Emax [4]: 404%
10 | COc1cc2c(cc1OC)C(=O)N[C@H](C(=O)NCCc1ccc3c(c1)OCO3)CC(=O)N(C)[C@@H](CC(C)C)C(=O)N(CCC1CCCCC1)CC(=O)N[C@H](Cc1ccccc1)CO2 [Example 585, (3R,9S,13S)-N-(2-(benzo[d][1,3]dioxol-5-yl)ethyl)-3-benzyl-7-(2-cyclohexylethyl)-9-isobutyl-17,18-dimethoxy-10-methyl-5,8,11,15-tetraoxo-2,3,4,5,6,7,8,9,10,11,12,13,14,15-tetradecahydrobenzo[p][1]oxa[4,7,10,14]tetraazacycloheptadecine-13-carboxamide] |  |  | EC50 [5]: 0.176 µM; Emax [6]: 168%
11 | Cc1cc2c3c(ccc2cn1)OC[C@@H](Cc1ccccc1)NC(=O)[C@@H](C)N(C)C(=O)[C@H](CC(C)C)N(C)C(=O)C[C@@H](C(=O)NCCc1cc(C)no1)NC3=O [Example 824, (3S,7S,10R,13R)-13-benzyl-7-isobutyl-6,9,10,20-tetramethyl-N-(2-(3-methylisoxazol-5-yl)ethyl)-1,5,8,11-tetraoxo-1,2,3,4,5,6,7,8,9,10,11,12,13,14-tetradecahydro-[1]oxa[4,7,10,14]tetraazacycloheptadecino[16,17-f]isoquinoline-3-carboxamide] |  |  | EC50 [3]: 0.674 µM; Emax [4]: 354%
12 | COc1cccc2c1C(=O)N[C@H](C(=O)NCC[C@H]1CCCCO1)CC(=O)N(C)[C@@H](CC(C)C)C(=O)N(CCC1CCCCC1)CC(=O)N[C@H](Cc1ccccc1)CO2 (racemic) [Example 212, (3R,9S,13S)-3-benzyl-7-(2-cyclohexylethyl)-9-isobutyl-16-methoxy-10-methyl-5,8,11,15-tetraoxo-N-(2-((RS)-tetrahydro-2H-pyran-2-yl)ethyl)-2,3,4,5,6,7,8,9,10,11,12,13,14,15-tetradecahydrobenzo[p][1]oxa[4,7,10,14]tetraazacycloheptadecine-13-carboxamide] | 0.292 | 130 | 
13 | COc1cccc(CCNC(=O)[C@@H]2CC(=O)N(C)[C@@H](CC(C)C)C(=O)N3CC[C@@H](C3)C(=O)N[C@H](Cc3ccccc3)COc3cnc4ccc(F)cc4c3C(=O)N2)c1 [Example 537, (73S,4R,9S,13S)-4-benzyl-16-fluoro-9-isobutyl-N-(3-methoxyphenethyl)-10-methyl-6,8,11,15-tetraoxo-2-oxa-5,10,14-triaza-1(3,4)-quinolina-7(3,1)-pyrrolidinacyclopentadecaphane-13-carboxamide] |  |  | EC50 [5]: 0.384 µM; Emax [6]: 294%
14 | CC(C)C[C@H]1C(=O)N(CCC2CCCCC2)CC(=O)N[C@H](Cc2ccccc2)COc2cnc3c(F)cccc3c2C(=O)N[C@H](C(=O)NCCc2ccc3c(c2)OCO3)CC(=O)N1C [Example 382, (3S,7S,13R)-N-(2-(benzo[d][1,3]dioxol-5-yl)ethyl)-13-benzyl-9-(2-cyclohexylethyl)-18-fluoro-7-isobutyl-6-methyl-1,5,8,11-tetraoxo-1,2,3,4,5,6,7,8,9,10,11,12,13,14-tetradecahydro-[1]oxa[4,7,10,14]tetraazacycloheptadecino[17,16-c]quinoline-3-carboxamide] | 0.044 | 264 | 
15 | COc1cccc(CCNC(=O)[C@@H]2CC(=O)N(C)[C@@H](CC(C)C)C(=O)N(C)CC(=O)N[C@H](Cc3ccccc3)COc3cc4c(cc3C(=O)N2)OCO4)c1 [Example 224, (7R,13S,17S)-7-benzyl-13-isobutyl-N-(3-methoxyphenethyl)-11,14-dimethyl-9,12,15,19-tetraoxo-6,7,8,9,10,11,12,13,14,15,16,17,18,19-tetradecahydro-[1,3]dioxolo[4′,5′:4,5]benzo[1,2-p][1]oxa[4,7,10,14]tetraazacycloheptadecine-17-carboxamide] | 0.34 | 144 | 

Reference: US20240208992A1, “MACROCYCLES AS CFTR MODULATORS” (Idorsia Pharmaceuticals Ltd, priority 2021, published 2024)
